By ED50 is commonly meant the dose at which the effect has come halfway, by size or by number of responders.

The record followed here is patent publication US5117037A, “Cis-bicyclo[4,3.0]non-2-end derivatives” (Sagami Chemical Research Center Toa Eiyo Ltd., priority 1989, dated 1992).

Test [1] deals with platelet aggregation (ADP-induced). In words: Platelet anti-aggregatory activities, ADP-induced aggregation of washed platelet suspension. It counts as cell-based, Japanese white male rabbits. Particulars: for IC50: Oryctolagus cuniculus, 0.05 h, rabbit platelet suspension, 3 min preincubation, read-out: Platelet anti-aggregatory activities ED50, ADP (concentration inhibiting 50% of the platelet aggregation); for activity ratio, ADP (PGI2 = 1): ratio of ED50 relative to PGI2. How it is done:
(§1) Japanese white male rabbits having a weight of from 2.0 to 2.5 kg were used.
(§2) Under anesthesia with pentobarbital sodium, blood was collected from the carotid artery and mixed with citric acid dextrose solution (1/7 volume) as an anticoagulant. Then, the mixture was subjected to centrifugal separation at 140 ×g for 15 minutes, whereupon the supernatant (platelet rich plasma: PRP) was collected. PRP was subjected to centrifugal separation at 1,300 ×g for 7 minutes, and platelet pellets thereby obtained were washed with a HEPES buffer solution (pH 6.5) for washing platelets and then subjected to centrifugal separation at 1,300 ×g for 7 minutes. The platelet pellets were washed twice under the same conditions and then suspended in a suspending solution (prepared by adding 0.1% […] for washing platelets) to make a platelet suspension containing from 5 to 8×10^8 platelets/ml. An aggregation meter was used for the measurement of the platelet aggregatory ability. To 380 μl of the platelet suspension, 10 μl of a test compound or a solvent as control was added. Three minutes later, 10 μl of a platelet aggregatory substance (as the final concentration: […], or […]) was added to induce platelet aggregation. The blood platelet anti-aggregatory activities by the test compound was represented by ED50 (i.e. the concentration of the test compound inhibiting 50% of the platelet aggregation).

In test [2] the test system is platelet aggregation (collagen-induced). In words: Platelet anti-aggregatory activities, collagen-induced aggregation of washed platelet suspension. The format is cell-based, Japanese white male rabbits. To be noted: for IC50: Oryctolagus cuniculus, 0.05 h, rabbit platelet suspension, 3 min preincubation, read-out: Platelet anti-aggregatory activities ED50, collagen (concentration inhibiting 50% of the platelet aggregation). How it is done:
as §1, §2

For test [3], the system named is gastric lesion induced by ethanol. Description: Inhibitory effect on formation of gastric lesion induced by ethanol. To be noted: rat, p.o, 1.5 hours later; for ED50: po, 1 ml of 99.5% ethanol orally 30 minutes after test compound, read-out: Inhibitory effect on formation of gastric lesion induced by ethanol ED50 (dose at which the ulcer was inhibited by 50%); for activity ratio, gastric lesion (PGE2 = 1): ratio of ED50 relative to PGE2. It counts as in vivo, Male wistar rats. The method, then:
Male wistar rats having a weight of from 170 to 270 g were put into individual cages and starved for 24 hours. During this starvation period, the rats were allowed to drink water freely. A test compound or PGE2 as a comparative compound was orally administered at a dose of 3 μg/kg, 10 μg/kg or 30 μg/kg, and 30 minutes later, 1 ml of 99.5% ethanol was orally administered to each rat. One hour or 4.5 hours after the ethanol administration, each rat was sacrificed by cervical vertebral dislocation, and the stomach was taken out. Each stomach was inflated with an amount of about 8 ml of 1% formaline solution and put into 1% formaline solution for 30 minutes to fix the gastric wall. After the fixing, the stomach was severed along the greater curvature, and the mucous membrane surface of the stomach was gently washed with flowing water. Then, the total length of lesions appearing on the gastric glandular portion was determined and used as the ulcer index.
The inhibitory effect of the test compound was represent by ED50 (i.e. the dose of the test compound at which the ulcer was inhibited by 50% relative to the ulcer index of the non-treated group). To the non-treated group, the solvent was administered.

For the compound `CCCCC[C@H](O)/C=C/[C@@H]1[C@H]2C/C(=C/CCCC(=O)O)O[C@H]2C[C@H]1O` [PGI2, reference compound], the IC50 in test [1] came out at 2.9 nM; in test [2], 3.4 nM.
`CCC#CCC(C)(C)[C@H](O)C#C[C@@H]1[C@H]2CCC(/C=C\CCC(=O)O)=C[C@H]2C[C@H]1O` [c]: in test [1], the IC50 came out at 1.3 nM and the “activity ratio, ADP (PGI2 = 1)” value stood at 2.2. For the same compound, the IC50 in test [2] was found to be 0.58 nM. For the same compound, the “activity ratio, collagen (PGI2 = 1)” value in test [2] (ratio of ED50 relative to PGI2) came to 5.9. Also, in test [3], the ED50 was determined as 0.97 µg/kg and the “activity ratio, gastric lesion (PGE2 = 1)” value was determined as 9.3.
On to `CCC#CC[C@@H](C)[C@H](O)C#C[C@@H]1[C@H]2CCC(CCOCC(=O)O)=C[C@H]2C[C@H]1O` [f], for which, in test [3], the ED50 worked out at 2.1 µg/kg and the “activity ratio, gastric lesion (PGE2 = 1)” value came to 4.3.
As for `CCC#CCC(C)(C)[C@H](O)C#C[C@@H]1[C@H]2CCC(CCOCC(=O)O)=C[C@H]2C[C@H]1O` [g, 3-(3-oxa-4-carboxybutyl)-7-exo-(4,4-dimethyl-3α-hydroxy-1,6-nondiynyl)-8-endo-hydroxy-cisbicyclo[4.3.0]non-2-ene], in test [1], the IC50 stood at 2.7 nM and the “activity ratio, ADP (PGI2 = 1)” value was 1.1. Moreover, the IC50 in test [2] was found to be 8.6 nM.
